Converted amounts (≈) assume the structure as drawn. The source made the active and inactive calls. No cut-off for these calls is given here.
Columns and labels:
B16-F10 [1] = assay: Cytotoxicity against mouse B16-F10 cells assessed as inhibition of cell growth measured after 72 hrs by MTT assay; format: functional, cell-based; settings: B16-F10, 72 h
Staphylococcus aureus = assay: Antimicrobial activity against Staphylococcus aureus assessed as bacterial growth inhibition; format: functional
CT26 = assay: cells; settings: Mus musculus, CT26, 72 h
4T1 = assay: Cytotoxicity against mouse 4T1 cells assessed as inhibition of cell growth measured after 72 hrs by MTT assay; format: functional, cell-based; settings: 4T1, 72 h
Bacillus subtilis = assay: Antimicrobial activity against Bacillus subtilis assessed as bacterial growth inhibition; format: functional
HCT-116 = assay: cells; settings: Homo sapiens, HCT-116, 72 h
A-375 [2] = assay: Cytotoxicity against human A-375 cells assessed as inhibition of cell growth measured after 72 hrs by MTT assay; format: functional, cell-based; settings: A-375, 72 h
Kasumi 1 = assay: cells; settings: Homo sapiens, Kasumi 1, 72 h
Escherichia coli = assay: Antimicrobial activity against Escherichia coli assessed as bacterial growth inhibition; format: functional
B16-F10 [3] = assay: Induction of morphological changes in mouse B16-F10 cells assessed as formation of apoptotic bodies at 0.5 to […] measured after 48 hrs by AnnexinV-FITC/propidium iodide staining based flow cytometry; format: functional, cell-based; settings: dose 0.5-2.5 µM
B16-F10 [4] = assay: Induction of secondary necrosis in mouse B16-F10 cells at 0.5 to […] measured after 48 hrs by AnnexinV-FITC/propidium iodide staining based flow cytometry; format: functional, cell-based; settings: dose 0.5-2.5 µM
B16-F10 [5] = assay: Anticancer activity against mouse B16-F10 cancer stem cells assessed as CD44+CD24+ marker cells at 1.25 uM measured after 30 hrs by FITC/APC staining based flow cytometry (reference value: […]); format: functional
A-375 [6] = assay: Anticancer activity against human A-375 cancer stem cells assessed as CD44+CD133+ marker cells at 5 uM measured after 30 hrs by FITC/APC staining based flow cytometry (reference value: […]); format: functional
A-375 [7] = assay: Anticancer activity against human A-375 cancer stem cells assessed as CD44+CD133+ marker cells at […] measured after 30 hrs by FITC/APC staining based flow cytometry (reference value: […]); format: functional; settings: dose 2.5 µM
B16-F10 [8] = assay: Anticancer activity against mouse B16-F10 cancer stem cells assessed as CD44+CD24+ marker cells at 5 uM measured after 30 hrs by FITC/APC staining based flow cytometry (reference value: […]); format: functional
A-375 [9] = assay: Anticancer activity against human A-375 cancer stem cells assessed as CD44+CD133+ marker cells at 1.25 uM measured after 30 hrs by FITC/APC staining based flow cytometry (reference value: […]); format: functional
B16-F10 [10] = assay: Anticancer activity against mouse B16-F10 cancer stem cells assessed as CD44+CD24+ marker cells at […] measured after 30 hrs by FITC/APC staining based flow cytometry (reference value: […]); format: functional; settings: dose 2.5 µM
[11] = Tmax in Sprague-Dawley rat at 20 mg/kg, iv by LC-MS/MS analysis; format: ADME, organism-based; settings: in vivo
[12] = Cmax in Sprague-Dawley rat at 20 mg/kg, iv by LC-MS/MS analysis; format: ADME, organism-based; set-up: dose 20 mg/kg, route iv; settings: in vivo
[13] = Half life in Sprague-Dawley rat at 20 mg/kg, iv by LC-MS/MS analysis; format: ADME, organism-based; settings: in vivo
[14] = Tmax in Sprague-Dawley rat at 50 mg/kg, po by LC-MS/MS analysis; format: ADME, organism-based; settings: in vivo
[15] = Cmax in Sprague-Dawley rat at 50 mg/kg, po by LC-MS/MS analysis; format: ADME, organism-based; set-up: dose 50 mg/kg, route po; settings: in vivo
[16] = Half life in Sprague-Dawley rat at 50 mg/kg, po by LC-MS/MS analysis; format: ADME, organism-based; settings: in vivo
[17] = Oral bioavailability in Sprague-Dawley rat at 50 mg/kg by LC-MS/MS analysis; format: ADME, organism-based; settings: in vivo
[18] = MRT (0 to t) in Sprague-Dawley rat at 20 mg/kg, iv by LC-MS/MS analysis; format: ADME, organism-based; settings: in vivo
[19] = MRT (0 to t) in Sprague-Dawley rat at 50 mg/kg, po by LC-MS/MS analysis; format: ADME, organism-based; settings: in vivo

Structure (SMILES): C=C[C@]1(C)C[C@@H](OC(=O)CO)[C@]2(C)[C@H](C)CC[C@]3(CCC(=O)[C@H]32)[C@@H](C)[C@@H]1O [PLEUROMULIN]
- IC50 (B16-F10 [1]): > 100 µM
- MIC (Staphylococcus aureus): 10 µg/mL (≈ 26.4 µM)
- IC50 (CT26): > 100 µM
- IC50 (4T1): > 100 µM
- MIC (Bacillus subtilis): 100 µg/mL (≈ 264 µM)
- IC50 (HCT-116): > 100 µM
- IC50 (A-375 [2]): > 100 µM
- IC50 (Kasumi 1): > 100 µM
- MIC (Escherichia coli): 50 µg/mL (≈ 132 µM)

Structure (SMILES): COc1cccc2c1C(=O)c1c(O)c3c(c(O)c1C2=O)C[C@@](O)(C(=O)CO)C[C@@H]3O[C@H]1C[C@H](N)[C@H](O)[C@H](C)O1
- Activity (B16-F10 [3]): Active
- Activity (B16-F10 [4]): Active

Structure (SMILES): CC(=O)O[C@H]1C(=O)[C@@]2(C)[C@H]([C@H](OC(=O)c3ccccc3)[C@]3(O)C[C@H](OC(=O)[C@H](O)[C@@H](NC(=O)c4ccccc4)c4ccccc4)C(C)=C1C3(C)C)[C@]1(OC(C)=O)CO[C@@H]1C[C@@H]2O [PACLITAXEL]
- Activity (B16-F10 [5]): 11.3%
- Activity (A-375 [6]): 20%
- Activity (A-375 [7]): 19.3%
- Activity (B16-F10 [8]): 24%
- Activity (A-375 [9]): 18.1%
- Activity (B16-F10 [10]): 12.5%

Structure (SMILES): C=C[C@]1(C)C[C@@H](O)[C@]2(C)[C@H](C)CC[C@]3(CC(=C)C(=O)[C@H]32)[C@@H](C)[C@@H]1OC(=O)Cc1ccc(F)cc1
- IC50 (B16-F10 [1]): 2.31 µM
- IC50 (CT26): > 10 µM
- IC50 (4T1): > 10 µM
- IC50 (HCT-116): 9.37 µM
- IC50 (A-375 [2]): 5.73 µM
- IC50 (Kasumi 1): 2.45 µM

Structure (SMILES): C=C[C@]1(C)C[C@@H](OC(=O)c2ccc(C(F)(F)F)cn2)[C@]2(C)[C@H](C)CC[C@]3(CC(=C)C(=O)[C@H]32)[C@@H](C)[C@@H]1OC(=O)c1ccc(C(F)(F)F)cn1
- Tmax [11]: 4.98 min
- Cmax [12]: 3400 ng/mL
- half-life [13]: 1.33 h
- Tmax [14]: 2.67 h
- Cmax [15]: 3650 ng/mL
- half-life [16]: 6.54 h
- bioavailability [17]: 88%
- MRT last [18]: 2.91 h
- MRT last [19]: 4.71 h

Source: ChEMBL document CHEMBL5055664, “A Novel Anticancer Stem Cell Compound Derived from Pleuromutilin Induced Necroptosis of Melanoma Cells” (J Med Chem, 2021)
